Data reported in patent publication US20250092269A1, “ANTI-BIOFOULING COMPOSITION” (Montana Technological University, priority 2023, published 2025).

Legend:
[1] = Membrane performance (water quantity output) in bench scale nanofiltration system; conditions: electrospun 3:1 PCL:PEG fibers with Urolithin A 200 μg/mL; 4-hour operation
From the text: (§1) Bench Scale Nanofiltration System: A bench scale nanofiltration system for monitoring water output efficiencies and biofilm formation on MCE membranes was used as illustrated in FIG. 2.
In this example, biofouling on filtration membranes was investigated by examining anti-quorum sensing molecules in P. aeruginosa (PAO1). More specifically, a membrane comprising an unmodified membrane (referred to “MCE Control”); a membrane (referred to as “Control Fibers”) comprising a filter coating, which was deposited by electrospinning fibers comprising a polymer blend (3:1 polycaprolactone (PCL) to polyethylene glycol (PEG)); and a membrane (referred to as “Anti-QS Fibers” comprising a filter coating, which was deposited by electrospinning fibers comprising a polymer blend (3:1 polycaprolactone (PCL) to polyethylene glycol (PEG)) associated with one or more anti-QS molecules (200 μg/mL). Biofilm growth over a 4-hour operation was investigated and compared for the MCE Control, Control Fibers, and Anti-QS Fibers.

[2] = tested on: P. aeruginosa (PAO1); experiment: Biofilm growth on filtration membranes in bench scale nanofiltration system, 4-hour operation (CLSM); format: cell-based, Pseudomonas aeruginosa
Method: Polymeric Component: A polymer blend for electrospinning was prepared comprising 3 wt. % PEG (8,000 MW, Sigma Aldrich) and 8.9 wt. % PCL (80,000 MW, Sigma Aldrich) in chloroform. The PEG/PCL polymer blend was stirred with a Teflon coated stir bar at 80° C. until no visible polymer weas present.
Anti-Quorum Sensing Molecules: The polymeric component comprising the polymer blend was seeded with Urolithin A at a concentration of 200 μg/mL during mixing. Fiber mats comprising Urolithin A were stored at 4-8° C. for preservation prior to application.
Electrospinning: The polymeric component comprising the polymer blend was pumped continuously by a syringe pump at a fixed rate of 0.250 mL/hour to a vertical Spraybase electrospinner equipped with a 22-guage needle at a voltage of 6.6 kV and grounded equidistant copper-plated parallel electrodes for uniaxially aligned deposition (parallel gap electrospinning). A separation distance of 4 cm between the needle and grounded electrodes were maintained for 20 minutes while the fiber mat was fabricated. Fiber mats were rotated at 10 minutes to achieve a crosshatch filter pattern. Fibers were then placed onto MCE membranes and investigated for their controlled release of the anti-QS molecules. […]

[3] = tested on: biofilm; experiment: Biofilm growth on membranes with Urolithin A fibers at 50, 100, 200 μg/mL (CLSM); format: cell-based; conditions: PCL/PEG fibers with Urolithin A 50, 100, 200 μg/mL; FIG. 6A-6D
Method: as §1
In this example, biofouling on filtration membranes was investigated by comparing membranes comprising a filter coating associated with one or more anti-QS Urolithin A molecules having concentrations of 50 μg/mL, 100 μg/mL, and 200 μg/mL.
FIG. 6A is a confocal microscopy (CLSM) image showing the biofilm growth on an unmodified control membrane. FIG. 6B is a confocal microscopy (CLSM) image showing the biofilm growth on a membrane comprising electrospun PCL/PEG fibers associated with one or more anti-QS Urolithin A molecules (50 μg/mL). FIG. 6C is a confocal microscopy (CLSM) image showing the biofilm growth on a membrane comprising electrospun PCL/PEG fibers associated with one or more anti-QS Urolithin A molecules (100 μg/mL). FIG. 6D is a confocal microscopy (CLSM) image showing the biofilm growth on a membrane comprising electrospun PCL/PEG fibers associated with one or more anti-QS Urolithin A molecules (200 μg/mL).

[4] = tested on: biofilm; experiment: Biofilm biovolume after 4-hour filtration test, furanone C-30 fibers vs control fibers (SEM); format: cell-based; conditions: furanone C-30 control-released from 3:1 PCL/PEG fibers on MCE filter
From the text: as §1
In this example, a membrane comprising a filter coating, which was deposited by electrospinning fibers comprising a polymer blend (3:1 polycaprolactone (PCL) to polyethylene glycol (PEG)) associated with one or more anti-QS molecules furanone C-30 was compared to a control membrane comprising a filter coating, which was deposited by electrospinning fibers comprising a polymer blend (3:1 polycaprolactone (PCL) to polyethylene glycol (PEG).
FIG. 8A is a scanning electron micrograph image showing the biofilm biovolume after a 4-hour filtration test of a MCE filter comprising electrospun PCL/PEG fibers. FIG. 8B is a scanning electron micrograph image showing the biofilm biovolume after a 4-hour filtration test of a MCE filter comprising electrospun PCL/PEG fibers associated with one or more anti-QS furanone C-30 molecules.

Row | SMILES | increase of flux [1] [%] | reduction of biofilm formation during filtration compared to the MCE Control ([2]; electrospun 3:1 PCL:PEG coating with Urolithin A 200 μg/mL) [%] | increase of biovolume reduction by controlled release of anti QS molecules ([2]; electrospun 3:1 PCL:PEG fibers with Urolithin A 200 μg/mL) [%] | biofilm biovolume vs concentration of Urolithin A in fibers [3] | reduction in biovolume relative to the control membrane (PCL/PEG fibers) [4] [%]
1 | O=c1oc2cc(O)ccc2c2ccc(O)cc12 [Urolithin A] | 52.78 | 83.48 | 26.05 | biofilm biovolume reduction corresponding to the increased concentrations | 
2 | O=C1C=C(Br)/C(=C/Br)O1 [furanone C-30] |  |  |  |  | 57.5
